Test results published in patent publication US11186577B2, “Vasopressin receptor antagonists and products and methods related thereto” (BlackThorn Therapeutics, Inc., priority 2017, dated 2021).
pIC50: −log10 of the molar value. Read-outs that look alike come from different tables or passages of the source.

Experiments:
[1] = target: human Arginine Vasopressin Receptor 1b (AVPR1b) (Homo sapiens (Human), UniProt P47901); assay: Vasopressin V1B receptor antagonist assay (AVP-evoked calcium, FLIPR, CHO-AVPR1b cells); type: cell-based
Chain of human Arginine Vasopressin Receptor 1b (AVPR1b) (P47901 whole entry): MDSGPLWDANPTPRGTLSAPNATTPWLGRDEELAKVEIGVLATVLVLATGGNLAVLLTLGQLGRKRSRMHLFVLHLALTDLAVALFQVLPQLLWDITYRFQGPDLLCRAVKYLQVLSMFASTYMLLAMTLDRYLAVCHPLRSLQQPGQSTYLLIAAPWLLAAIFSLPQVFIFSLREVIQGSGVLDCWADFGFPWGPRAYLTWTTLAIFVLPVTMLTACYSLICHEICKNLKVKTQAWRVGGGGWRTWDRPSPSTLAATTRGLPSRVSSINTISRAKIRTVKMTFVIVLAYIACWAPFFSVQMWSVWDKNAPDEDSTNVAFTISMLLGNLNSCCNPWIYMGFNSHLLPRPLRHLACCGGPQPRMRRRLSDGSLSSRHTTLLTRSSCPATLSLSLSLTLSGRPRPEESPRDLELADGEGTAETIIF
Protocol: The purpose of the assay is to determine the inhibitory effect of synthesized compounds on the Vasopressin V1b receptor. The assay was performed in Chinese Hamster Ovary (CHO) cells expressing the human Arginine Vasopressin Receptor 1b (AVPR1b). Arginine Vasopressin (AVP) evokes an increase in intracellular calcium in CHO-AVPR1b cells which is measured in a fluorescence assay on the FLIPR^TETRA using calcium sensitive dyes. Test compounds were assessed for their ability to affect the magnitude of the response to AVP, with antagonists showing a concentration-dependent reduction in the AVP-mediated fluorescence.
CHO-AVPR1b cells were maintained in routine culture in T175 Flasks at 37° C., 5% CO2. The growth medium consisted of Ham's F12 media supplemented with 10% v/v fetal bovine serum, 1× non-essential amino acids, and 0.4 mg/ml Geneticin G418.
Cells were harvested from T175 flasks when they were 80-90% confluent by first washing the cell monolayer with PBS and then dissociated using trypsin 0.05%/EDTA (3 mL for a T175 Flask). The flasks were incubated at room temperature until the cells detached. To the cell suspension, 10 ml of growth media was added and the cell density determined using the Vi-Cell automated cell counter. The cells were spun at 1000 rpm for 3 minutes, then the supernatant was carefully removed and discarded. The cell pellet was re-suspended at 6.0e^5 cells/ml in growth media. 25 μL of cells in growth media was dispensed into each well (15,000 cells per well) of a poly-D-lysine coated black, clear bottomed, 384-well plate. The plates were incubated at 37° C., 5% CO2 overnight.
At the start of each assay day, the potency of AVP is assessed and an EC80 concentration determined for subsequent compound profiling. Assays were performed using a two-step addition protocol on the FLIPR^TETRA; first addition of 5 μl of control or test compound at 10× final in assay buffer with 15 min incubation at 37° C., 5% CO2 followed by 10 μl of AVP at 6× final concentration in assay buffer. Changes in fluorescence were monitored for 3 min after both additions on the FLIPR^TETRA using 470-495 nm excitation and 515-575 nm emission wavelengths. The assay buffer consisted of HBSS (+Ca/+Mg) supplemented with 20 mM HEPES, and for the preparation of the AVP agonist only, 0.1% w/v bovine serum albumin. The assay was initiated by the removal of growth media from the cells and replacement with 45 μl of Calcium-6 dye (Molecular Devices) prepared at 1× in assay buffer. Cells were loaded with dye for 60-90 min at 37° C., 5% CO2 before initiation of the FLIPR^TETRA protocol. […] For compound profiling, test compounds were first serially diluted in DMSO (10-point curve, 1:3 dilutions) then diluted 33.3-fold in assay buffer prior to addition to the dye loaded cells on the FLIPR^TETRA. At the end of the incubation period 10 μl of AVP in assay buffer containing 0.1% BSA was added at the previously determined EC80 concentration.
In-plate controls for the assay include a Nelivaptan concentration-response curve as the reference V1b antagonist and an AVP concentration-response curve to confirm the reproducibility of the EC80 used for the compound challenge.

[2] = target: human Arginine Vasopressin Receptor 1a (AVPR1a) (Homo sapiens (Human), UniProt P37288); assay: Vasopressin V1A receptor antagonist assay (AVP-evoked calcium, FLIPR, CHO-AVPR1a cells); type: cell-based
Chain of human Arginine Vasopressin Receptor 1a (AVPR1a) (P37288 whole entry): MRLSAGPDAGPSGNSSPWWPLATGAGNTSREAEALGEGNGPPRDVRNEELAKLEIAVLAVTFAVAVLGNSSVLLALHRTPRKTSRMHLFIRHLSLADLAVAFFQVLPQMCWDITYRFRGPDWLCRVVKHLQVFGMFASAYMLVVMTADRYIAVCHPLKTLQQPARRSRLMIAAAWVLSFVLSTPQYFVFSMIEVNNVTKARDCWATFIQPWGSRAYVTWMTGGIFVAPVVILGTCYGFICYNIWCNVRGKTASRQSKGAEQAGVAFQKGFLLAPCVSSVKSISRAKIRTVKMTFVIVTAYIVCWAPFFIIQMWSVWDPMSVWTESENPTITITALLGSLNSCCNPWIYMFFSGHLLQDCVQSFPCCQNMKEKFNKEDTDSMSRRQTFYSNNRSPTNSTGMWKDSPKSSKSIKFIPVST
In short: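 CHO cells expressing human AVPR1a, Calcium-6 dye loaded 60-90 min, preincubated with compound 15 min at 37° C., then challenged with AVP at its daily-determined EC80. FLIPR fluorescence; 10-point 1:3 series from 3 μM, duplicates.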

[3] = target: human Oxytocin Receptor (hOTR) (Homo sapiens (Human), UniProt P30559); assay: Oxytocin receptor antagonist assay (oxytocin-evoked calcium, FLIPR, CHEM-1-hOTR cells); type: cell-based; settings: read-out: OT IC50
Chain of human Oxytocin Receptor (hOTR) (P30559 whole entry): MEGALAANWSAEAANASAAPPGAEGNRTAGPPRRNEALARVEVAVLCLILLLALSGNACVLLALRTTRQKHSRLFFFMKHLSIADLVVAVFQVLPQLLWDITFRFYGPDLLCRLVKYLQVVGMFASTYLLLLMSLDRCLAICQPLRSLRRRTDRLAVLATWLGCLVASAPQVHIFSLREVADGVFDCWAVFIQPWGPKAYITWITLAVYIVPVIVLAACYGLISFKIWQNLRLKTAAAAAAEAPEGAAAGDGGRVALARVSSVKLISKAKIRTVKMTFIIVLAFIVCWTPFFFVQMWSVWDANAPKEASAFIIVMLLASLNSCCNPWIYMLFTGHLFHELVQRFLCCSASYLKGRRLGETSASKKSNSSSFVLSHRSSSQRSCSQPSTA
Protocol: This assay was performed in CHEM-1 cells expressing the human Oxytocin Receptor (hOTR) to determine the inhibitory effect of the compounds of the invention on the human Oxytocin receptor. Oxytocin evokes an increase in intracellular calcium in CHEM-1-hOTR cells which is measured in a fluorescence assay on the FLIPR^TETRA using calcium sensitive dyes. Test compounds were assessed for their ability to affect the magnitude of the response to oxytocin, with antagonists showing a concentration-dependent reduction in the oxytocin-mediated fluorescence.
CHEM-1-hOTR ready was used to assay frozen cells (Eurofins #HTS090RTA) which are supplied with a proprietary Media Component.
Cells were thawed in a 37° C. water bath and diluted with the supplied Media Component to a final volume of 10 ml. The cell suspension was centrifuged at 1000 rpm for 3 min at room temperature and the supernatant was discarded. The cell pellet was resuspended in Media Component (10.5 ml) and the cells (25 μL) were dispensed into a poly-D-lysine coated black, clear bottomed, 384-well plate. The plates were incubated overnight at 37° C., 5% CO2.
At the start of each assay day the potency of oxytocin was assessed and an EC80 concentration was determined for subsequent compound profiling. Assays were performed using a two-step addition protocol on the FLIPR^TETRA; first addition of 5 μl of control or test compound at 10× final in assay buffer with 15 min incubation at 37° C., 5% CO2 followed by 10 μl of oxytocin at 6× final concentration in assay buffer. Changes in fluorescence were monitored for 3 min after both additions on the FLIPR^TETRA using 470-495 nm excitation and 515-575 nm emission wavelengths. The assay buffer consisted of HBSS (+Ca/+Mg) supplemented with 20 mM HEPES, and for the preparation of the oxytocin agonist only, 0.1% w/v bovine serum albumin. The assay was initiated by the removal of growth media from the cells and replaced with 45 μl of Calcium-6 dye (Molecular Devices) prepared at 1× in assay buffer. Cells were loaded with dye for 60-90 min at 37° C., 5% CO2 before initiation of the FLIPR^TETRA protocol. […] For compound profiling, test compounds were first serially diluted in DMSO (10-point curve, 1:3 dilutions) then diluted 33.3-fold in assay buffer prior to addition to the dye loaded cells on the FLIPR^TETRA. At the end of the incubation period 10 μl of oxytocin in assay buffer containing 0.1% BSA was added at the previously determined EC80 concentration.
In-plate controls for the assay include a L-368,899 concentration-response curve as the reference OTR antagonist and an oxytocin concentration-response curve to confirm the reproducibility of the EC80 used for the compound challenge.

[4] = MDR1-MDCK effective efflux assay (Transwell, 10 μM, 1 hour), wild-type MDCK cells; type: in vitro ADME; settings: dog, MDCK, pH 7.4, wild-type MDCK cells, apical to basolateral (A>B), 10 μM, 1 hour; read-out: Papp AB WT
Protocol: (§1) The MDR1-MDCK effective efflux assay was performed as described in the BioFocus Standard Operating Procedure, ADME-SOP-56. Both wild-type (WT) and MDR1-MDCK cells (Solvo Biotechnology) were seeded onto 24-well Transwell plates at 2.35×10^5 cells per well and used in confluent monolayers after a 3 day culture at 37° C. under 5% CO2. For both cell types, test and control compounds (propranolol, vinblastine) were added (10 μM, 0.1% DMSO final, n=2) to donor compartments of the Transwell plate assembly in assay buffer (Hanks balanced salt solution supplemented with 25 mM HEPES, adjusted to pH 7.4) for both apical to basolateral (A>B) and basolateral to apical (B>A) measurements. Incubations were performed at 37° C., with samples removed from both donor and acceptor chambers at T=0 and 1 hour and compound analysed by mass spectrometry (LC-MS/MS) including an analytical internal standard.
(§2) Where V is the volume of each Transwell compartment (apical 125 basolateral 600 and concentrations are the relative MS responses for compound (normalized to internal standard) in the donor chamber before incubation and acceptor chamber at the end of the incubation. Area=area of cells exposed for drug transfer (0.33 cm2).
(§3) Efflux ratios (Papp B>A/Papp A>B) were calculated for each compound from the mean Papp values in each direction for both wild-type and MDR1-MDCK cells.
(§4) In order to confirm the involvement of MDR1 in any efflux seen, an “effective efflux ratio” (EER) was calculated by comparing compound efflux ratios (ER) in the two cell types, i.e. EER=ER(MDR1−MDCK)/ER(wild-type MDCK)
(§5) This ratio illustrates the effect of the over-expressed MDR1 normalised for the background movement of compound through the wild-type cells.
(§6) Lucifer Yellow (LY) was added to the apical buffer in all wells to assess viability of the cell layer. Compound recovery from the wells was determined from MS responses (normalized to internal standard) in donor and acceptor chambers at the end of incubation compared to response in the donor chamber pre-incubation.

MDR1 (P-glycoprotein) = assay: MDR1-MDCK effective efflux assay (Transwell, 10 μM, 1 hour), MDR1-MDCK cells; type: in vitro ADME; settings: dog, MDCK-MDR1, pH 7.4, MDR1-MDCK cells, apical to basolateral (A>B), 10 μM, 1 hour; read-out: Papp AB MDR1
Protocol: as §1, §2, §3, §4, §5, §6

[5] = target: human Arginine Vasopressin Receptor V2 (AVPR2) (Homo sapiens (Human), UniProt P30518); assay: Vasopressin V2 receptor antagonist assay (cAMP TR-FRET, 1321N1 cells); type: cell-based
Chain of human Arginine Vasopressin Receptor V2 (AVPR2) (P30518 whole entry): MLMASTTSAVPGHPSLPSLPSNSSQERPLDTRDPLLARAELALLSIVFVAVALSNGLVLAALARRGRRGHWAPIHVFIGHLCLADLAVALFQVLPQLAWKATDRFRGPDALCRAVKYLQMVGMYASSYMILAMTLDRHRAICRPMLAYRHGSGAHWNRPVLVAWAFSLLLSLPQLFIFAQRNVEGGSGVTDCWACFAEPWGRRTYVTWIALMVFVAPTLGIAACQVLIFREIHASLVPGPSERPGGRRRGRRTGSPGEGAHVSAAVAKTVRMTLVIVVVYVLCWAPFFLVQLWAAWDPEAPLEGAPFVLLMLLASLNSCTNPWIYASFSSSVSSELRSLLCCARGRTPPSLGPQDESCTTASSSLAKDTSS
Protocol: The purpose of the assay was to determine the inhibitory effect of synthesized compounds on the Vasopressin receptor 2. […] Arginine Vasopressin (AVP) evokes an increase in intracellular cAMP in these cells which is measured in a TR-FRET assay using a Europium cAMP tracer and ULight labelled antibody reagents contained in a LANCE Ultra cAMP kit (Perkin Elmer #TRF0263). […] Test compounds were assessed for their ability to affect the magnitude of the response to AVP, with antagonists showing a concentration-dependent decrease in the AVP-mediated reduction in TR-FRET signal.
cAMPZen V2 assay ready cells were thawed at 37° C. and resuspended directly from frozen in 9 ml growth medium consisting of DMEM supplemented with 10% v/v fetal bovine serum, 1× non-essential amino acids, and 1 mM sodium pyruvate. Cells were spun at 1000 rpm for 3 minutes and the supernatant was carefully removed and discarded. The pellet was resuspended in 5 ml stimulation buffer and the cell density determined using the Vi-Cell automated cell counter. The cell suspension was diluted to a 0.2×10^6/ml suspension ready for plating. […] Stimulation buffer consisted of HBSS (+Ca/+Mg) supplemented with 5 mM HEPES, 0.1% BSA stabiliser and 0.5 mM IBMX.
At the start of each assay day the potency of AVP was assessed and an EC80 concentration determined for subsequent compound profiling. Assays were performed by first an addition of 2.5 μl of control or test compound at 4× final concentration in stimulation buffer followed by 2.5 μl of AVP at 4× final concentration in stimulation buffer. After a 1 hour reaction, detection reagents were added by first an addition of 5 μl EU-cAMP tracer, followed by 5 μl ULight-anti-cAMP both diluted as per the manufacturer's instructions. […] For compound profiling, test compounds were dispensed by the Labcyte Echo (10-point curve, 1:3 dilutions) in a target 0.1 μl volume then diluted 750-fold in stimulation buffer containing 3% DMSO prior to addition to the cells. At the end of the incubation period, 2.5 μl of AVP in stimulation buffer was added at the previously determined EC80 concentration.

CC1c2nnc(C3CC4(C3)CN(c3ccc(F)cn3)C4)n2-c2ccc(Cl)cc2CN1C(=O)OC(C)(C)CF (single isomer, unassigned) [Cpd 206A]
pIC50 [1]: < 6.00 | pIC50 ([2]; read-out: V1a IC50): > 7.00 | pIC50 [3]: 6.30 to 7.00

O=C1OCC2c3nnc(C4CC5(C4)CN(c4ccc(F)cn4)C5)n3-c3ccc(Cl)cc3CN12 (stereo not drawn) [compound 200, 7-chloro-3-(2-(5-fluoropyridin-2-yl)-2-azaspiro[3.3]heptan-6-yl)-13,13a-dihydro-9H,11H-benzo[e]oxazolo[3,4-a][1,2,4]triazolo[3,4-c][1,4]diazepin-11-one]
Papp A→B at 1 h, 10 μM [4]: > 20 ×10⁻⁶ cm/s | pIC50 [2]: 6.30 to 7.00 | Papp A→B at 1 h, 10 μM (MDR1 (P-glycoprotein)): < 7 ×10⁻⁶ cm/s

Cc1nc(N2CC3(CC(c4nnc5n4-c4ccc(Cl)cc4CN(C4CC4)C5)C3)C2)ccc1F [compound 229]
pIC50 [5]: > 7.00 | pIC50 ([2]; read-out: V1a IC50): > 7.00 | pIC50 [3]: 6.00 to 6.30

CC1c2nnc(C3CC4(C3)CN(c3ncccn3)C4)n2-c2ccc(Cl)cc2CN1C(=O)OC(C)(C)CF (stereo not drawn) [compound 196]
pIC50 [1]: < 6.00 | pIC50 ([2]; read-out: V1a IC50): > 7.00 | pIC50 [3]: < 6.00

CC(C)OC(=O)N1Cc2cc(Cl)ccc2-n2c(C3CC4(C3)CN(c3cccc(C#N)n3)C4)nnc2C1C (single isomer, unassigned) [Cpd 204A]
pIC50 [1]: < 6.00 | pIC50 ([2]; read-out: V1a IC50): > 7.00 | pIC50 [3]: 6.30 to 7.00

CCC1c2nnc(C3CC4(C3)CN(c3ccc(F)cn3)C4)n2-c2ccc(Cl)cc2CN1C(=O)OC (stereo not drawn) [compound 197, methyl 8-chloro-4-ethyl-1-(2-(5-fluoropyridin-2-yl)-2-azaspiro[3.3]heptan-6-yl)-4H-benzo[f][1,2,4]triazolo[4,3-a][1,4]diazepine-5(6H)-carboxylate]
Papp A→B at 1 h, 10 μM [4]: > 20 ×10⁻⁶ cm/s | pIC50 [2]: 6.30 to 7.00 | Papp A→B at 1 h, 10 μM (MDR1 (P-glycoprotein)): > 20 ×10⁻⁶ cm/s

CC1c2nnc(C3CC4(C3)CN(c3ncccn3)C4)n2-c2ccc(Cl)cc2CN1C(=O)OC1(C)CC1 (single isomer, unassigned) [Cpd 205B]
pIC50 [1]: < 6.00 | pIC50 ([2]; read-out: V1a IC50): < 6.00 | pIC50 [3]: < 6.00

CC1c2nnc(C3CC4(C3)CN(c3ccc(F)cn3)C4)n2-c2ccc(Cl)cc2CN1C(=O)OC(C)(C)CF (single isomer, unassigned) [Cpd 206B]
pIC50 [1]: < 6.00 | pIC50 ([2]; read-out: V1a IC50): 6.30 to 7.00 | pIC50 [3]: < 6.00

CC(C)OC(=O)N1Cc2cc(Cl)ccc2-n2c(C3CC4(C3)CN(c3cccc(C#N)n3)C4)nnc2C1C (single isomer, unassigned) [Cpd 204B]
pIC50 [1]: < 6.00 | pIC50 ([2]; read-out: V1a IC50): 6.30 to 7.00 | pIC50 [3]: < 6.00

COC(=O)N1Cc2cc(Cl)ccc2-n2c(C3CC4(C3)CN(c3ncccn3)C4)nnc2C12CC2 [compound 199]
pIC50 [1]: < 6.00 | pIC50 ([2]; read-out: V1a IC50): > 7.00 | pIC50 [3]: < 6.00

CC1c2nnc(C3CC4(C3)CN(c3ncccn3)C4)n2-c2ccc(Cl)cc2CN1C(=O)OC1(C)CC1 (single isomer, unassigned) [Cpd 205A]
pIC50 [1]: < 6.00 | pIC50 ([2]; read-out: V1a IC50): > 7.00 | pIC50 [3]: 6.00 to 6.30
